Reference: the supplement of paper PMC10307832

Tests used:
Assay in all cases: relative viability (nuclei count vs DMSO), 5 days (fraction); higher = more cells survive
NCI-H1299 = test system: NCI-H1299
In short: (§1)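 A single step with final 0.05% Triton X-100, 1% formaldehyde and 1 ug/ml Hoechst fixed the cells and stained nuclei 5 days after treatment. Lung cancer cell lines in 1536-well plates had been treated by pin tool the day after seeding with one drug alone or a fixed anchor-drug dose plus five library-drug doses (not always all listed) in √10 steps, and nuclei were counted on 4× images. Relative viability is the ratio of nuclei in treated wells to nuclei in vehicle wells, taken as the median of duplicate plates.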

NCI-H596 = test system: NCI-H596
In short: as §1

NCI-H1993 = test system: NCI-H1993
In short: as §1

EBC-1 = test system: EBC-1
In short: as §1

LCLC-97TM1 = test system: LCLC-97TM1
In short: as §1

NCI-H1355 = test system: NCI-H1355
In short: as §1

IA-LM = test system: IA-LM
In short: as §1

NCI-H322M = test system: NCI-H322M
In short: as §1

Calu-6 = test system: Calu-6
In short: as §1

A549 = test system: A549
In short: as §1

UMC-11 = test system: UMC-11
In short: as §1

NCI-H1703 = test system: NCI-H1703
In short: as §1

NCI-H23 = test system: NCI-H23
In short: as §1

Nc1ccn([C@@H]2O[C@H](CO)[C@@H](O)[C@@H]2O)c(=O)n1 [Cytarabine] + CC1(C)CCC(c2ccc(Cl)cc2)=C(CN2CCN(c3ccc(C(=O)NS(=O)(=O)c4ccc(N[C@H](CCN5CCOCC5)CSc5ccccc5)c(S(=O)(=O)C(F)(F)F)c4)cc3)CC2)C1 [Navitoclax] (partner 0.5 µM)
relative viability (NCI-H1299; first compound 0.005 µM): 1.09
relative viability (NCI-H1299; first compound 0.01581 µM): 1.13
relative viability (NCI-H1299; first compound 0.05 µM): 1.08
relative viability (NCI-H1299; first compound 0.1581 µM): 1.02
relative viability (NCI-H1299; first compound 0.5 µM): 0.989
relative viability (NCI-H596; first compound 0.005 µM): 0.874
relative viability (NCI-H596; first compound 0.01581 µM): 0.894
relative viability (NCI-H596; first compound 0.05 µM): 0.611
relative viability (NCI-H596; first compound 0.1581 µM): 0.558
relative viability (NCI-H596; first compound 0.5 µM): 0.413
relative viability (NCI-H1993; first compound 0.005 µM): 0.92
relative viability (NCI-H1993; first compound 0.01581 µM): 0.949
relative viability (NCI-H1993; first compound 0.05 µM): 0.721
relative viability (NCI-H1993; first compound 0.1581 µM): 0.548
relative viability (NCI-H1993; first compound 0.5 µM): 0.624
relative viability (EBC-1; first compound 0.005 µM): 0.304
relative viability (EBC-1; first compound 0.01581 µM): 0.281
relative viability (EBC-1; first compound 0.05 µM): 0.233
relative viability (EBC-1; first compound 0.1581 µM): 0.222
relative viability (EBC-1; first compound 0.5 µM): 0.165
relative viability (LCLC-97TM1; first compound 0.005 µM): 0.401
relative viability (LCLC-97TM1; first compound 0.01581 µM): 0.283
relative viability (LCLC-97TM1; first compound 0.05 µM): 0.171
relative viability (LCLC-97TM1; first compound 0.1581 µM): 0.107
relative viability (LCLC-97TM1; first compound 0.5 µM): 0.115
relative viability (NCI-H1355; first compound 0.005 µM): 0.897
relative viability (NCI-H1355; first compound 0.01581 µM): 0.811
relative viability (NCI-H1355; first compound 0.05 µM): 0.819
relative viability (NCI-H1355; first compound 0.1581 µM): 0.325
relative viability (NCI-H1355; first compound 0.5 µM): 0.203
relative viability (IA-LM; first compound 0.005 µM): 0.917
relative viability (IA-LM; first compound 0.01581 µM): 0.603
relative viability (IA-LM; first compound 0.05 µM): 0.64
relative viability (IA-LM; first compound 0.1581 µM): 0.279
relative viability (IA-LM; first compound 0.5 µM): 0.151
relative viability (NCI-H322M; first compound 0.005 µM): 0.846
relative viability (NCI-H322M; first compound 0.01581 µM): 0.787
relative viability (NCI-H322M; first compound 0.05 µM): 0.561
relative viability (NCI-H322M; first compound 0.1581 µM): 0.46
relative viability (NCI-H322M; first compound 0.5 µM): 0.366
relative viability (Calu-6; first compound 0.005 µM): 0.831
relative viability (Calu-6; first compound 0.01581 µM): 0.796
relative viability (Calu-6; first compound 0.05 µM): 0.9
relative viability (Calu-6; first compound 0.1581 µM): 0.338
relative viability (Calu-6; first compound 0.5 µM): 0.22
relative viability (A549; first compound 0.005 µM): 0.969
relative viability (A549; first compound 0.01581 µM): 0.588
relative viability (A549; first compound 0.05 µM): 0.476
relative viability (A549; first compound 0.1581 µM): 0.0384
relative viability (A549; first compound 0.5 µM): 0.0234
relative viability (UMC-11; first compound 0.005 µM): 0.268
relative viability (UMC-11; first compound 0.01581 µM): 0.197
relative viability (UMC-11; first compound 0.05 µM): 0.2
relative viability (UMC-11; first compound 0.1581 µM): 0.141
relative viability (UMC-11; first compound 0.5 µM): 0.125
relative viability (NCI-H1703; first compound 0.005 µM): 0.717
relative viability (NCI-H1703; first compound 0.01581 µM): 0.365
relative viability (NCI-H1703; first compound 0.05 µM): 0.244
relative viability (NCI-H1703; first compound 0.1581 µM): 0.135
relative viability (NCI-H1703; first compound 0.5 µM): 0.105
relative viability (NCI-H23; first compound 0.005 µM): 0.753
relative viability (NCI-H23; first compound 0.01581 µM): 0.551
relative viability (NCI-H23; first compound 0.05 µM): 0.394
relative viability (NCI-H23; first compound 0.1581 µM): 0.206
relative viability (NCI-H23; first compound 0.5 µM): 0.173
